Test [1] deals with T1, Protein deacetylase HDAC6 (Homo sapiens, UniProt Q9UBN7).
T1 sequence (Q9UBN7 whole entry): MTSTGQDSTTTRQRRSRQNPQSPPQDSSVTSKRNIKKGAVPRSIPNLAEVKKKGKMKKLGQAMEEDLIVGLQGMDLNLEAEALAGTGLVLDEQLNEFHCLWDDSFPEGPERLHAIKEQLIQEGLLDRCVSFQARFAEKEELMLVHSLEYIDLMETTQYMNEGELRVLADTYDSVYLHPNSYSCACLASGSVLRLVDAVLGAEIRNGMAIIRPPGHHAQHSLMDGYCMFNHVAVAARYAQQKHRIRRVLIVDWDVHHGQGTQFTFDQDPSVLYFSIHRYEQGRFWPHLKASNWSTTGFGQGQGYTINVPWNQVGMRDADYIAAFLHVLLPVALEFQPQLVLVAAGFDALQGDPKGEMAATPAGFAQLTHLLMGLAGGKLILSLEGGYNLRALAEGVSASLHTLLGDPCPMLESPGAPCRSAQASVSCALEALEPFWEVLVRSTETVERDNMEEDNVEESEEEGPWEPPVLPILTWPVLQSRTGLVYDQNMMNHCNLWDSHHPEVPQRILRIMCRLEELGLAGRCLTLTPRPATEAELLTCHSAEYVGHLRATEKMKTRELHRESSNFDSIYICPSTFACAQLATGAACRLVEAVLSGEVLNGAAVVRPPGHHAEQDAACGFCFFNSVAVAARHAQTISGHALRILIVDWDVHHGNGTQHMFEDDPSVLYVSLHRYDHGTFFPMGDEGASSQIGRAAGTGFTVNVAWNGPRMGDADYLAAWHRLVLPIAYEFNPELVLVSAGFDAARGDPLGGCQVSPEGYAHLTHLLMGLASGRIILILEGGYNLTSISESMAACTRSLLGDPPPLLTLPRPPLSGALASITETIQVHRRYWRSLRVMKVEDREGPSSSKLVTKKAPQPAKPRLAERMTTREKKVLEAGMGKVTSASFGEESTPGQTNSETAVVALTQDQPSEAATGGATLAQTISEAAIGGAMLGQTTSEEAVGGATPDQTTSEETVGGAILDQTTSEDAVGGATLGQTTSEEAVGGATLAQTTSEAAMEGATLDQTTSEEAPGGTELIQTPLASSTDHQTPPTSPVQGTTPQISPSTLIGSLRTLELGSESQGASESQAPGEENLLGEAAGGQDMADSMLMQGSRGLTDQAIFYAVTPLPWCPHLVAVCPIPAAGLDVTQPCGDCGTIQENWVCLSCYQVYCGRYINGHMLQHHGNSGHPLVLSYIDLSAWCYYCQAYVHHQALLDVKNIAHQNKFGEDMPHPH
The test can be described thus: Inhibition of HDAC6 (unknown origin).

Test [2] concerns the target Histone deacetylase 5 (Homo sapiens, UniProt Q9UQL6). Kind of test: Inhibition of HDAC5 (unknown origin).
The target in test [3] is T2, Histone deacetylase 8 (Homo sapiens, UniProt Q9BY41).
T2 sequence (Q9BY41 whole entry): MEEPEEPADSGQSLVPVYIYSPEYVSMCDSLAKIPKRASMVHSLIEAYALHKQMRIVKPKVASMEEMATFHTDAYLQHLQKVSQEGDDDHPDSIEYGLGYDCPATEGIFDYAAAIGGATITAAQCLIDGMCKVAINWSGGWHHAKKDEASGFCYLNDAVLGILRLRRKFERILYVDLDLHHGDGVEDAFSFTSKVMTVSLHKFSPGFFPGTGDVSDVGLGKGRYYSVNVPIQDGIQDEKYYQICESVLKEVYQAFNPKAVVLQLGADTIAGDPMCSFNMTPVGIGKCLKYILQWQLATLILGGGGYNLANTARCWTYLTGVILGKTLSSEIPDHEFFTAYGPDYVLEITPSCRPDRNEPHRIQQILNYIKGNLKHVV
Kind of test: Inhibition of HDAC8 (unknown origin).

Test [4] deals with T3, Histone deacetylase 7 (Homo sapiens, UniProt Q8WUI4).
T3 sequence (Q8WUI4 whole entry): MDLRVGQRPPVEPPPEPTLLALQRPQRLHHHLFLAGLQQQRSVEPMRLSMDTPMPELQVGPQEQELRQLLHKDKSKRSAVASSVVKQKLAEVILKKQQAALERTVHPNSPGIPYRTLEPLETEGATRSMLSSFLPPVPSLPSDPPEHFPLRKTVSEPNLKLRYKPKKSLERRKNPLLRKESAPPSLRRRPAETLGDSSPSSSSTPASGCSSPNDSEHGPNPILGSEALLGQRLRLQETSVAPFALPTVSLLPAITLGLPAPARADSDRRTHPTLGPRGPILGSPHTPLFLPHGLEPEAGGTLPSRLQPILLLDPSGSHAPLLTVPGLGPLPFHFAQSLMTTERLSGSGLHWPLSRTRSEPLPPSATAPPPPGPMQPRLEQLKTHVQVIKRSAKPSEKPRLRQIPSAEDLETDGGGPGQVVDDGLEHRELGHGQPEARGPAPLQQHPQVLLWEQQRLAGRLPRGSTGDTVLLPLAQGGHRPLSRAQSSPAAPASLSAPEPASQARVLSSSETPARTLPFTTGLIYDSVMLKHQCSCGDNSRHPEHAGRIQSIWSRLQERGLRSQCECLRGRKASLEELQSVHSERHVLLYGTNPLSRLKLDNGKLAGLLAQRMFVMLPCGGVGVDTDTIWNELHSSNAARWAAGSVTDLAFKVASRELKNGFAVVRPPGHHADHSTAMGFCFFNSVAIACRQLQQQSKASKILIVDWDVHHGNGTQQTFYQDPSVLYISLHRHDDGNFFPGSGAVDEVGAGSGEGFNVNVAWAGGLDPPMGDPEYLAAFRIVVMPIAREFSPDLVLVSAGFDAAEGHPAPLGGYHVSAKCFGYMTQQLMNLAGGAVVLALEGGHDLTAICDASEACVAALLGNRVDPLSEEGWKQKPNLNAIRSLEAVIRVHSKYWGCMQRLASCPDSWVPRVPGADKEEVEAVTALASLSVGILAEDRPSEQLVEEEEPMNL
The test can be described thus: Inhibition of HDAC7 (unknown origin).

Test [5] concerns the target Platelet-derived growth factor receptor alpha (Homo sapiens, UniProt P16234). Kind of test: Inhibition of PDGFRa (unknown origin).
Test [6] concerns the target Histone deacetylase 1 (Homo sapiens, UniProt Q13547). Kind of test: Inhibition of HDAC1 (unknown origin).
The target in test [7] is Platelet-derived growth factor receptor beta (Homo sapiens, UniProt P09619). Kind of test: Inhibition of PDGFRb (unknown origin).
The target in test [8] is Vascular endothelial growth factor receptor 1 (Homo sapiens, UniProt P17948). The test can be described thus: Inhibition of VEGFR1 (unknown origin).
Test [9] deals with Histone deacetylase 2 (Homo sapiens, UniProt Q92769).
Test [10] deals with Histone deacetylase 4 (Homo sapiens, UniProt P56524). Kind of test: Inhibition of HDAC4 (unknown origin).
In test [11] the target is Histone deacetylase 3 (Homo sapiens, UniProt O15379). The test can be described thus: Inhibition of HDAC3 (unknown origin).
Test [12] addresses Histone deacetylase 9 (Homo sapiens, UniProt Q9UKV0). Kind of test: Inhibition of HDAC9 (unknown origin).
For test [13], the target named is Vascular endothelial growth factor receptor 2 (Homo sapiens, UniProt P35968). The test can be described thus: Inhibition of VEGFR2 (unknown origin).
The target of test [14] is Histone deacetylase. The class given is cell-based, Homo sapiens. The note with it: hela.
For test [15], the target named is Histone deacetylase (Homo sapiens) (UniProt Q13547+O15379+Q9UBN7+Q92769+Q9UQL6+Q8WUI4+Q9BY41+Q96DB2+P56524+Q9UKV0+Q969S8). The test can be described thus: Inhibition of HDAC isolated from human HeLa cells at 1 uM by fluorimetric assay. The class given is cell-free.
For test [16], the species on record is Xenopus laevis. The note with it: at 10 to 100 µM.
Test [17] has as its system MDA-MB-231. Kind of test: Cytotoxicity against human MDA-MB-231 cells assessed as reversal of cell viability at 200 uM after 72 hrs by MTT assay in presence of SAHA. It is filed as functional. Background: Tetrazolium assays rely on reduction of a dye to a coloured formazan, in cell work by metabolically active cells.
Test [18] concerns MDA-MB-231. The test can be described thus: Cytotoxicity against human MDA-MB-231 cells assessed as reversal of cell viability at 10 uM after 72 hrs by MTT assay in presence of SAHA. The class given is functional, cell-based.

Calls of active or inactive are those of the source. No cut-off for these calls is given here. A value given as a limit tells only on which side of the number the result lay.

As usually defined, the IC50 is the concentration that gives 50% inhibition. Usually inhibition stands for the change of the read-out against control, counted positive when it falls.

Sequence of Histone deacetylase 9 (Q9UKV0 whole entry): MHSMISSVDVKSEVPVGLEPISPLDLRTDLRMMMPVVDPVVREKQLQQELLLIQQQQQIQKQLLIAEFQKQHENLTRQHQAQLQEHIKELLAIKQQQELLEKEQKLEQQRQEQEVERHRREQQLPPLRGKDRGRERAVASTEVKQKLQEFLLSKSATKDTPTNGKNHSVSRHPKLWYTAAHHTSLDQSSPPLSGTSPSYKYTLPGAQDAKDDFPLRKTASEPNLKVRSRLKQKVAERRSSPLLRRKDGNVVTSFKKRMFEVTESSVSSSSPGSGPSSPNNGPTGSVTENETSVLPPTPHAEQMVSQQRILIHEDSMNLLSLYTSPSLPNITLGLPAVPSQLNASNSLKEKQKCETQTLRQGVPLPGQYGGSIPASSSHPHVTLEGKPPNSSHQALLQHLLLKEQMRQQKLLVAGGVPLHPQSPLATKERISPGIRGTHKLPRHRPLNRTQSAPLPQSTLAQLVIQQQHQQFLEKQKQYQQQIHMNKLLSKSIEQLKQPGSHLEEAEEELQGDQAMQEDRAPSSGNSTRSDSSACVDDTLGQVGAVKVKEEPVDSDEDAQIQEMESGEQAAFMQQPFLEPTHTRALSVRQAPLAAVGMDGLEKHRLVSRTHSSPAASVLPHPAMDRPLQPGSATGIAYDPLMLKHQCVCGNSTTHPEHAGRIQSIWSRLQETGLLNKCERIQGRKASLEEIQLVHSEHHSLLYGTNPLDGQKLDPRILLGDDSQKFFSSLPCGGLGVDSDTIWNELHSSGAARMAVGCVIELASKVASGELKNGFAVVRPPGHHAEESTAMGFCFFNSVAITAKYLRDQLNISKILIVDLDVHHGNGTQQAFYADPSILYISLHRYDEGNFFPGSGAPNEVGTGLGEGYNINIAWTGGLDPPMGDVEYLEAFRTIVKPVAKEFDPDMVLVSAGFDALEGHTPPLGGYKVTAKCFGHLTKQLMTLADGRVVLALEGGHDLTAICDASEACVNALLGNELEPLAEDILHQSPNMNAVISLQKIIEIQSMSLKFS
Sequence of Histone deacetylase 5 (Q9UQL6 whole entry): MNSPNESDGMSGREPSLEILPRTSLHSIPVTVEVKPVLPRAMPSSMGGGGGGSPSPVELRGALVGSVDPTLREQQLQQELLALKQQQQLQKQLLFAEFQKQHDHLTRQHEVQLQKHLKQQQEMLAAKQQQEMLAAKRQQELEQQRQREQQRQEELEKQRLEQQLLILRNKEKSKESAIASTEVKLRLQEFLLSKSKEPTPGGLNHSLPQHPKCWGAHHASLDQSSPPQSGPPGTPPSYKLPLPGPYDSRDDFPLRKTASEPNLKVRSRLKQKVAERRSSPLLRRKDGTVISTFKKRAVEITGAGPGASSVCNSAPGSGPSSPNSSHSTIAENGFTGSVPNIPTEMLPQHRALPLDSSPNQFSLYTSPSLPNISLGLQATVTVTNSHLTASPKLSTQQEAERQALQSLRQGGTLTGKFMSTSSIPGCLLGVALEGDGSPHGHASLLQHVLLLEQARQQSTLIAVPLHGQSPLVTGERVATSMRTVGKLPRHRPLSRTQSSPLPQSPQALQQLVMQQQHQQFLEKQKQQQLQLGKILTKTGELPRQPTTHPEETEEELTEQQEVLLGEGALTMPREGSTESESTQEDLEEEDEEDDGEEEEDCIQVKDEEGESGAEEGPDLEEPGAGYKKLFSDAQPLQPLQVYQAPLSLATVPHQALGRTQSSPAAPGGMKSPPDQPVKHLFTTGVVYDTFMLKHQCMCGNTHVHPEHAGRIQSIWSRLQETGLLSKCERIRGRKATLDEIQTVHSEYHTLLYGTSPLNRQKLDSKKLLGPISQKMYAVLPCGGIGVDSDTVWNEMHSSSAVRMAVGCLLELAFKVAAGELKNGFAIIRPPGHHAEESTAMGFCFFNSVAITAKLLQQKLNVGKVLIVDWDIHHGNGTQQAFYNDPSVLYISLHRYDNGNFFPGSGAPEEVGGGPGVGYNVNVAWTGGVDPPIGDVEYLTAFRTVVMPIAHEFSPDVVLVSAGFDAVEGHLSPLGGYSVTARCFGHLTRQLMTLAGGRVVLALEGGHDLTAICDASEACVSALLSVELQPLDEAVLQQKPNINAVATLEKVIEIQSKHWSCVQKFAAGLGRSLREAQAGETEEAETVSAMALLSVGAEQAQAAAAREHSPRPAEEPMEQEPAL
Sequence of Vascular endothelial growth factor receptor 1 (P17948 whole entry): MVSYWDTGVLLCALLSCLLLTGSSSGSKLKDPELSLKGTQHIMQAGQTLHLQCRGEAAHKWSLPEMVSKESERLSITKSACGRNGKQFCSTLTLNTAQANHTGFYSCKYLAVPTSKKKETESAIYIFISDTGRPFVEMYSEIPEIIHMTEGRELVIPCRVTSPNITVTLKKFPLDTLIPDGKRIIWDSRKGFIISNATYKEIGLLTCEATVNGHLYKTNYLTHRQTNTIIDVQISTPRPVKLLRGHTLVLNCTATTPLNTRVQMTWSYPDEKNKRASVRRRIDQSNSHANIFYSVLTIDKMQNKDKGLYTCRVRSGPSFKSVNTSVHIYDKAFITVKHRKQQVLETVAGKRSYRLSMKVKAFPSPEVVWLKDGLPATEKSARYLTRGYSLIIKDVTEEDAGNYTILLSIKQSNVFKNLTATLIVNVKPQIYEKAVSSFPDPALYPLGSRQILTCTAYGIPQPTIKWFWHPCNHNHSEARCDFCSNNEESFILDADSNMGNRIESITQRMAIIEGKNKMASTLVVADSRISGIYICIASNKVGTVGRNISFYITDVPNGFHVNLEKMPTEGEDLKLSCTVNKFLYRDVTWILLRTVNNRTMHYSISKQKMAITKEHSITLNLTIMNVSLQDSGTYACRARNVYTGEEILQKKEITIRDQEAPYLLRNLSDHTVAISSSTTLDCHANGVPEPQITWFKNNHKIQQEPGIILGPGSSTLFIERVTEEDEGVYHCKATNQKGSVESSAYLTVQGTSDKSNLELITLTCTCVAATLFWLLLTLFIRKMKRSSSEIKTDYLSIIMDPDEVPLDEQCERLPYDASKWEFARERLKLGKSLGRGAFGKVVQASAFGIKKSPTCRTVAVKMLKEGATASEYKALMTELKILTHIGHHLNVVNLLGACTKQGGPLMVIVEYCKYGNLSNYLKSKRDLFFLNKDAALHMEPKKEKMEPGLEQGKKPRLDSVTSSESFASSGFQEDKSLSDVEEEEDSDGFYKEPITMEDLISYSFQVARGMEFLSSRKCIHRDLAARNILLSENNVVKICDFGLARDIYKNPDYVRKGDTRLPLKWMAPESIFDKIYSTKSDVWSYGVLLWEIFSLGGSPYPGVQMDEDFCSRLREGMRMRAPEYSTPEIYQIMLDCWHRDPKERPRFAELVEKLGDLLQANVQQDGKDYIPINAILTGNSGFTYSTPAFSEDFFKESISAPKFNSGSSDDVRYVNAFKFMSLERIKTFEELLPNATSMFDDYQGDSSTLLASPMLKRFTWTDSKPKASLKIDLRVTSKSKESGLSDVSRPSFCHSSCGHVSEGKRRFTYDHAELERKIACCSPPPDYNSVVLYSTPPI
Sequence of Histone deacetylase 1 (Q13547 whole entry): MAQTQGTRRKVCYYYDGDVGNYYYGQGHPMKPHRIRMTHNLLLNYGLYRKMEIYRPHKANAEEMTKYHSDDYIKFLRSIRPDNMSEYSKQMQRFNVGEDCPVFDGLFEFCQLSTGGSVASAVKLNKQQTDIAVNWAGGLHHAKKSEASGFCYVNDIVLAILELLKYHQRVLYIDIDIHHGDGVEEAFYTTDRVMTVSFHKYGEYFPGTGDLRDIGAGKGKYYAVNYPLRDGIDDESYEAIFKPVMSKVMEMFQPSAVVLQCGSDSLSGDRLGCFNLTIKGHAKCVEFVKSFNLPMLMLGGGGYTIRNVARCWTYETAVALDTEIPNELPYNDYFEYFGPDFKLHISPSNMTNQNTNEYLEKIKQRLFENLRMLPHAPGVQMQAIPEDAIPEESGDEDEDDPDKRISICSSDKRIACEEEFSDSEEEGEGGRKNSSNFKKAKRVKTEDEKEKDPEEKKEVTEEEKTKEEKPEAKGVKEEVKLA
Sequence of Histone deacetylase 2 (Q92769 whole entry): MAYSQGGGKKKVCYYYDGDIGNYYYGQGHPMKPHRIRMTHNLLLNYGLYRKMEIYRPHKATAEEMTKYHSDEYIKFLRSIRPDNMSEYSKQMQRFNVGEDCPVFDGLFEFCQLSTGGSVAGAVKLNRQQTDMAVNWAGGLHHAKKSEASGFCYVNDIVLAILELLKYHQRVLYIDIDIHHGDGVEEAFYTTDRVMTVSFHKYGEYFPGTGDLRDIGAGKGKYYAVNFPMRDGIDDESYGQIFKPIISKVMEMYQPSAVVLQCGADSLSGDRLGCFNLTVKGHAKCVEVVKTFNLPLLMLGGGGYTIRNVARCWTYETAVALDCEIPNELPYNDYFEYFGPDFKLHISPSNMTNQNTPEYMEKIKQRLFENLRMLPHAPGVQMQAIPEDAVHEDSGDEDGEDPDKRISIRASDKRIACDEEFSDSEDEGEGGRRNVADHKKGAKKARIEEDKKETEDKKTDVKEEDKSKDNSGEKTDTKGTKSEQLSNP
Sequence of Histone deacetylase 3 (O15379 whole entry): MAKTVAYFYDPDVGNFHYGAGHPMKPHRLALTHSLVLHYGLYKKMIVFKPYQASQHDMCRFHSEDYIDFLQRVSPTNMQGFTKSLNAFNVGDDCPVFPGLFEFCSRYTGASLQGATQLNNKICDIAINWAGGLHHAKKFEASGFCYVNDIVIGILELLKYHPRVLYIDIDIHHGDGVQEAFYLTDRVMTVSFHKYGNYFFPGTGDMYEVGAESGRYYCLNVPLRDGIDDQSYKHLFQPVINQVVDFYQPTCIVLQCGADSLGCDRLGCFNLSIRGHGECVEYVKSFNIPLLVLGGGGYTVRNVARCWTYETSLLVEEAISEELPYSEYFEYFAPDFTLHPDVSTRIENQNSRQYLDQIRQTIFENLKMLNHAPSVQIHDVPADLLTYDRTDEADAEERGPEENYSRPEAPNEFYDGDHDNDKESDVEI

Turning to `Nc1ccccc1NC(=O)CCCCC(=O)Nc1ccc2c(c1)/C(=C/c1ccc[nH]1)C(=O)N2`, the IC50 result in test [1] was “Not Active”; in test [2], “Not Active”; in [3] it was “Not Active”; in [4] it was “Not Active”; in test [5] it was “Not Active”; in test [6] it was 1260 nM. The IC50 entry in test [7] is “Not Active”; in test [8] it was “Not Active”; in test [9], 3290 nM; in test [10] it was “Not Active”; in [11] it was 2.42 nM; in test [12] it was “Not Active”. For the same compound, the IC50 entry in test [13] is “Not Active”.

For `CSCCCNC(=O)c1ccc2c(c1)NC(=O)/C2=C\c1[nH]c(C)cc1C`, the IC50 result in test [7], in [8] and in test [13] was “Not Active” throughout.

As for `Cc1cc(C)c(/C=C2\C(=O)Nc3ccc(NC(=O)CCCCCCC(=O)NO)cc32)[nH]1`, the IC50 result in test [5] is listed as “Not Active”; in test [7], “Not Active”; in test [8], “Not Active”; in [14], 443 nM; in [13], “Not Active”. This compound yielded an inhibition in test [15] above 20%.

As for `CSCCCNC(=O)c1ccc2c(c1)/C(=C/c1[nH]c(C)cc1C)C(=O)N2`, the IC50 in test [7] (read-out: IC50) was 8 nM; in [8], “Not Active”; in [13] (read-out: IC50), 38 nM.

As to `O=C(CCCCCCC(=O)Nc1ccccc1)NO` [VORINOSTAT], the IC50 result in [2], in [4], in test [10] and in test [12] was “Not Active” each time.

Take `Nc1ccccc1NC(=O)CCCCCCC(=O)Nc1ccc2c(c1)/C(=C/c1ccc[nH]1)C(=O)N2`: the IC50 in [1] (read-out: IC50) is 4610 nM; in test [2] it was “Not Active”; in [3], “Not Active”; in test [4], “Not Active”; in test [5], “Not Active”; in test [6] it was 373 nM. The concentration for half-maximal inhibition (IC50) entry in [7] was “Not Active”; in [8], “Not Active”; in test [9] it was 2230 nM; in [10], “Not Active”; in test [11], 394 nM; in [12] it was “Not Active”. Also, the IC50 result in test [13] was “Not Active”.

With `O=C(CCCCC(=O)Nc1ccc2c(c1)/C(=C/c1ccc[nH]1)C(=O)N2)NO`, the IC50 in test [1] (read-out: IC50) is 1.61 nM; in test [2], “Not Active”; in [3] (read-out: IC50), 312 nM; in [4] it was “Not Active”; in [5] it was “Not Active”; in [6] it was 9.37 nM. Moreover, the IC50 is 518 nM in test [7] (read-out: IC50); 205 nM in test [8] (read-out: IC50); 20.4 nM in [9]; “Not Active” in test [10]; 935 nM in test [14]; 9.77 nM in test [11]. In addition, the IC50 result in test [12] is “Not Active”; in test [13] (read-out: IC50), 290 nM.

`Cc1cc(C)c(/C=C2\C(=O)Nc3ccccc32)[nH]1`: the inhibition result in [16] was “Active”.

`O=C1Nc2ccc(O)cc2/C1=C/c1ccc[nH]1`: the IC50 in test [5] (read-out: IC50) was 406 nM; in [7] (read-out: IC50), 637 nM; in test [8] (read-out: IC50) it was 116 nM; in [13] (read-out: IC50), 405 nM. Moreover, the Activity in test [17] is 70%. For the same compound, the result in test [18] was Active.

Values taken from ChEMBL document CHEMBL3621077, “Synthesis of hybrid anticancer agents based on kinase and histone deacetylase inhibitors” (Medchemcomm, 2014).
